# Tests used:
# [1] = test system: isolated nematocyst capsules; conditions: 50 mM CaCl2; cited from earlier work
# [2] = test system: Aiptasia Mutabilis acontial filament nematocysts; conditions: 2 mM in seawater medium; cited from earlier work
# [3] = test system: nematocyte batteries in the oral arms of Pelagia nociluca; conditions: applied through a gelatin probe; cited from earlier work
# [4] = test system: jellyfish Rhopilema nomadica nematocysts; experiment: Inhibition of nematocyst discharge into human skin samples (immunohistochemical analysis); assay type: cell-based; conditions: human skin sections, 10 seconds contact with jellyfish tentacles
# Procedure: Normal human skin was obtained from neonatal elective circumcision. The skin was immediately placed into sterile phosphate buffered saline (PBS) containing antibiotic/antimycotic. The tissue was frozen and embedded in Tissue-TekTM. It was then sectioned into 50 μm sections using a cryostat. The sections were attached to superfrost/plus microscope slide (Fisherbrand) and maintained at […] until time of use. All sections were examined to ensure that they were perpendicular to the plane of the epidermis, exposing cross-sections of epidiermis, dermis and sub-cutaneos tissue.
# For immunoassay tests to detect cnidaria stinging level of human skin, a polyclonal antibody specific for nematocyst toxin was prepared, as described in Lotan et al (1996).
# Briefly, the HPLC fraction containing the toxin phospholipase A2 from the jellyfish Rhopilema nomadica was isolated and injected into rabbits as described in Vaitukaitis, pp. 46–52, “Immunochemical Techniques, Part B,” in Methods in enzymology, vol. 73, ed. Larson & Vunkis (academic Press, New York, 1981). Serum was collected from the rabbits after two injections, and the presence of antibody against the jellyfish toxin was examined on immunoblots.
# The slides prepared and frozen as described above were thawed at room temperature. The slides were submersed in sea water and then attached to jellyfish or sea anemone tentacles for 10 seconds. The tentacles were detached, the slide washed with PBS, and blocked using 5% Fetal Bovine Serum, and 0.1% Triton X100 in PBS (blocking solution). All washing incubation steps were conducted on a tilting shaker at room temperature. The slides were incubated at 10 ml of block solution containing a 1:2, 500 dilution of the anti-toxin antibody for one hour. After incubation, the slide were washed five times for five minutes each wash with 100 mL of 0.1% TritonX100 in PBS (Wash solution). […]
# Twelve sections of human skin samples were tested in each experiment. […] The number of nematocysts that penetrated the skin was determined using immunohistochemical analysis.
# [5] = Water resistance of ointment on virgin wool squares in seawater (atomic absorption); assay type: physicochemical; conditions: 80 RPM
# Procedure: To determine the water resistance of an ointment containing 50 mM LaCl3, prepared according the above-described conditions, three squares (10×10 CM) of virgin wool, keratin protein that is used as a substrate to approximate human skin, were used. Each square of wool was treated with 1-gram of ointment containing 50 mM LaCl3. After 20 minutes of drying at room temperature, the squares of wool were immersed in one liter of seawater and agitated (80 RPM) for 30 minutes, 60 minutes, or 120 minutes. The ointment was extracted separately from each square of wool with 50 ml 1% Tritox100 under boiling. The Lanthanum chloride concentration of each sample of extracted ointment was monitored with the use of atomic absorption.
smiles,measurement,setting,value
[Ca+2].[Cl-].[Cl-] [CaCl2],discharge of isolated nematocyst capsules,[1],do not discharge
"[Cl-].[Cl-].[Co+2] [CoCl2, reference compound]",effect on nematocyst discharge,[2],inactivates nematocyst discharge
[Gd+3] [Gd^+3],effect on discharge of nematocyte batteries,[3],prevents discharge
"[Cl][La]([Cl])[Cl] [LaCl3, Lanthanum Chloride]",effect on nematocyst discharge,[2],inactivates nematocyst discharge
same,inhibition of nematocyst penetration,[4]; 2 mM LaCl3 in ointment,44%
same,reduction in the sting,[4]; 5 mM LaCl3 in ointment,76%
same,reduction of the sting,[4]; 50 mM LaCl3 in lotion,92%
same,LaCl3 retained in the ointment,"[5]; ointment containing 50 mM LaCl3, 30 minutes water submersion",90%
same,Lanthanum remaining in the ointment,"[5]; ointment containing 50 mM LaCl3, 60 minutes water submersion",77%
same,LaCl3 left in the ointment,"[5]; ointment containing 50 mM LaCl3, 120 minutes water submersion",70%
